Experimental data taken from patent publication US9409952B2, “Peptide-compound cyclization method” (Chugai Seiyaku Kabushiki Kaisha, priority 2011, dated 2016).
Read-outs that look alike come from different tables or passages of the source. Starred links: 1 amine or outer side, 2 acyl side, 3 side chain; linkers in the order of their positions; H or OH if unused. Positions of bridges follow the written chain, without caps; N, C: chain ends. Non-standard residues stand in square brackets, D forms with d. Residues, ends and D or L forms follow the SMILES beside them. *: point of attachment. NMePhe(3-Cl) = CN[C@@H](Cc1cccc(Cl)c1)C(=O)O; NMeF = CN[C@@H](Cc1ccccc1)C(=O)O; NMeGABA = CN(CCCC(=O)[*:2])[*:1]; NMeI = CC[C@H](C)[C@H](NC)C(=O)O; NMeβAla = CN(CCC(=O)[*:2])[*:1]; Aoc(2) = CCCCCC[C@H](N)C(=O)O; NMeL = CN[C@@H](CC(C)C)C(=O)O; NMeV = CN[C@H](C(=O)O)C(C)C; NMeA = CN[C@@H](C)C(=O)O; Piperidide = C1CCN(*)CC1; dNMeA = CN[C@H](C)C(=O)O; β3hA = C[C@H](N)CC(=O)O; Sar = CNCC(=O)O; tBu = CC(C)(C)*

What was measured:
[1] = PAMPA (parallel artificial membrane permeability assay); format: in vitro ADME; settings: for Papp at 18 hours, 50 µM: PAMPA
Summary of the method: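 Artificial membrane was 10% (w/v) egg lecithin plus 0.5% (w/v) cholesterol in dodecane on a PVDF filter. A 10 mM DMSO stock was added at 0.5% (v/v) to donor buffer (50 mM MOPSO, pH 6.5, 5.0% glycocholic acid). After 18 h at 37 °C, LC/MS or LC/UV gave donor and acceptor levels for Pe.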

[2] = Metabolic stability in human hepatic microsome; format: in vitro ADME; settings: microsomes
[3] = membrane permeation rate (Pe), 50 mM MOPSO buffer pH 6.5 with 5.0% glycocholic acid, 37° C., 18 hours, read-out: iPAMPA Pe
[4] = pH 7.4, human hepatic microsome, NADPH(+), read-out: CL NADPH(+)

SMILES	Papp at 18 hours, 50 µM [1, 3] [×10⁻⁶ cm/s]	microsomal CLint at 1 uM [2, 4] [µL/min/mg]	Papp at 18 hours, 50 µM ([1]; pH 6.5) [×10⁻⁶ cm/s]	microsomal CLint at 1 uM ([2]; human, pH 7.4, CL NADPH(+)) [µL/min/mg]	iPAMPA Pe ([1]; membrane permeation rate (Pe), 50 mM MOPSO buffer pH 6.5 with 5.0% glycocholic acid, 37° C., 18 hours)
CC(C)C[C@@H]1NC(=O)[C@H](CC(C)C)N(C)C(=O)CNC(=O)[C@H](C(C)C)N(C)C(=O)[C@H](C)N(C)C(=O)[C@H]([C@@H](C)O)NC(=O)[C@H](C)N(C)C(=O)CCCN(C)C(=O)C[C@@H](C(=O)N(C)[C@@H](Cc2ccccc2)C(=O)N[C@@H](C)C(=O)N2CCCCC2)NC(=O)[C@H](Cc2ccccc2)NC(=O)[C@H](CC(C)C)N(C)C1=O [DP-365] ([NMeGABA][NMeA]T[NMeA][NMeV]G[NMeL]L[NMeL]FD[NMeF]A-Piperidide; lactam N-11)	20	35	–	–	–
CC(C)C[C@H]1C(=O)N(C)[C@@H](C(C)C)C(=O)N[C@@H](Cc2ccccc2)C(=O)N[C@H](C(=O)N(C)[C@@H](Cc2ccccc2)C(=O)N[C@@H](C)C(=O)N2CCCCC2)CC(=O)N(C)CCCC(=O)N[C@@H](C(C)C)C(=O)N(C)[C@@H](CC(C)C)C(=O)N[C@@H]([C@@H](C)O)C(=O)N(C)[C@@H](Cc2ccccc2)C(=O)NCC(=O)N1C [DP-372] ([NMeGABA]V[NMeL]T[NMeF]G[NMeL][NMeV]FD[NMeF]A-Piperidide; lactam N-10)	42	78	–	–	–
CC[C@H](C)[C@H]1C(=O)N[C@@H](C)C(=O)N[C@H](C(=O)N2CCCCC2)CC(=O)N[C@H](C)C(=O)N[C@@H](Cc2ccccc2)C(=O)N(C)[C@@H](CC(C)C)C(=O)N[C@@H](CC(C)C)C(=O)N[C@@H](Cc2ccccc2)C(=O)N2CCC[C@H]2C(=O)N[C@@H]([C@@H](C)O)C(=O)N[C@@H](COC(C)(C)C)C(=O)N(C)CC(=O)N1C [DP-88] ([dA]F[NMeL]LFPTS(tBu)[Sar][NMeI]AD-Piperidide; lactam N-12)	–	–	13	32	–
CC(C)C[C@H]1C(=O)N(C)[C@@H](CC(C)C)C(=O)N[C@H](C(=O)N(C)[C@@H](Cc2ccccc2)C(=O)N[C@@H](C)C(=O)N2CCCCC2)CC(=O)N[C@H](C(C)C)C(=O)N(C)[C@@H](C)C(=O)N(C)[C@@H](Cc2ccccc2)C(=O)N(C)[C@@H](CC(C)C)C(=O)N[C@@H]([C@@H](C)O)C(=O)N(C)CC(=O)N[C@@H](C(C)C)C(=O)N1C [DP-123] ([dV][NMeA][NMeF][NMeL]T[Sar]V[NMeL][NMeL]D[NMeF]A-Piperidide; lactam N-10)	58	21	–	–	–
CC(C)C[C@@H](C(=O)N[C@@H](C)C(=O)N1CCCCC1)N(C)C(=O)[C@H](C)N(C)C(=O)[C@@H]1CC(=O)N[C@H](C(C)C)C(=O)N(C)[C@@H](C)C(=O)N(C)[C@@H](CC(C)C)C(=O)N(C)[C@@H](CC(C)C)C(=O)N(C)CC(=O)N(C)[C@@H](Cc2ccccc2)C(=O)N[C@@H](C)C(=O)N(C)[C@@H](Cc2ccccc2)C(=O)N(C)[C@@H](CC(C)C)C(=O)N[C@@H]([C@@H](C)O)C(=O)N1 [DP-582] ([dV][NMeA][NMeL][NMeL][Sar][NMeF]A[NMeF][NMeL]TD[NMeA][NMeL]A-Piperidide; lactam N-11)	21	12	–	–	–
CC[C@H](C)[C@@H]1NC(=O)[C@H](CC(C)C)N(C)C(=O)[C@H](Cc2ccccc2)N(C)C(=O)[C@@H](C(C)C)NC(=O)C[C@H](C)NC(=O)[C@H](CC(C)C)N(C)C(=O)[C@H](C)N(C)C(=O)[C@H]([C@@H](C)O)NC(=O)[C@H](Cc2cccc(Cl)c2)N(C)C(=O)[C@H](CC(C)C)N(C)C1=O [DP-782] (cyclo(I[NMeL][NMePhe(3-Cl)]T[NMeA][NMeL][β3hA][dV][NMeF][NMeL]))	–	–	10	127	–
CC[C@H](C)[C@H]1C(=O)N[C@@H](C)C(=O)N(C)[C@@H](Cc2ccccc2)C(=O)N[C@@H]([C@@H](C)O)C(=O)N(C)CC(=O)N(C)[C@@H](Cc2ccccc2)C(=O)N(C)[C@@H](CC(C)C)C(=O)N[C@H](C(=O)N2CCCCC2)CC(=O)N(C)CCC(=O)N[C@@H](CC(C)C)C(=O)N(C)[C@@H](CC(C)C)C(=O)N1C [DP-48] ([NMeβAla]L[NMeL][NMeI]A[NMeF]T[Sar][NMeF][NMeL]D-Piperidide; lactam N-11)	–	–	33	32	–
CC[C@H](C)[C@@H]1NC(=O)[C@@H](C)NC(=O)C[C@@H](C(=O)N2CCCCC2)NC(=O)[C@H](Cc2ccccc2)NC(=O)[C@H]([C@@H](C)O)NC(=O)[C@H](C)NC(=O)[C@H](Cc2ccccc2)NC(=O)[C@H](CC(C)C)NC(=O)[C@H](CC(C)C)N(C)C(=O)[C@H](Cc2ccccc2)NC(=O)[C@H](CC(C)C)NC1=O [DP-415] ([dA]ILF[NMeL]LFATFD-Piperidide; lactam N-11)	2.9	118	–	–	–
CC(C)C[C@H]1C(=O)N[C@H](C(=O)N2CCCCC2)CC(=O)N(C)[C@H](C)C(=O)N(C)[C@@H](Cc2ccccc2)C(=O)N(C)[C@@H](CC(C)C)C(=O)N[C@@H]([C@@H](C)O)C(=O)N(C)CC(=O)N[C@@H](COC(C)(C)C)C(=O)N1C [DP-527] ([dNMeA][NMeF][NMeL]T[Sar]S(tBu)[NMeL]D-Piperidide; lactam N-8)	11	30	–	–	–
CC(C)C[C@H]1C(=O)N[C@@H](C(C)C)C(=O)N[C@H](C(=O)N(C)[C@@H](Cc2ccccc2)C(=O)N[C@@H](C)C(=O)N2CCCCC2)CC(=O)N[C@@H](C)C(=O)N(C)[C@@H](Cc2ccccc2)C(=O)N(C)[C@@H](C)C(=O)N(C)[C@@H](CC(C)C)C(=O)N[C@@H]([C@@H](C)O)C(=O)N(C)CC(=O)N1C [DP-196] (A[NMeF][NMeA][NMeL]T[Sar][NMeL]VD[NMeF]A-Piperidide; lactam N-9)	29	65	–	–	–
CC(C)C[C@H]1C(=O)N[C@@H](COC(C)(C)C)C(=O)N[C@H](C(=O)N2CCCCC2)CC(=O)N(C)CC(=O)N[C@@H]([C@@H](C)O)C(=O)N(C)[C@@H](C)C(=O)N(C)[C@@H](Cc2ccccc2)C(=O)N(C)[C@@H](Cc2ccccc2)C(=O)N1C [DP-709] ([Sar]T[NMeA][NMeF][NMeF][NMeL]S(tBu)D-Piperidide; lactam N-8)	35	90	–	–	–
CC[C@H](C)[C@H]1C(=O)N(C)[C@@H](Cc2ccccc2)C(=O)N[C@@H](CC(C)C)C(=O)N[C@H](C(=O)N2CCCCC2)CC(=O)N(C)CCC(=O)N(C)[C@@H](CC(C)C)C(=O)N[C@@H]([C@@H](C)O)C(=O)N(C)[C@@H](Cc2ccccc2)C(=O)N(C)[C@@H](CC(C)C)C(=O)N[C@@H](C)C(=O)N(C)[C@@H](CC(C)C)C(=O)N1C [DP-104] ([NMeβAla][NMeL]T[NMeF][NMeL]A[NMeL][NMeI][NMeF]LD-Piperidide; lactam N-11)	–	–	6.7	29	–
CCCCCC[C@@H]1NC(=O)[C@H](CC(C)C)N(C)C(=O)[C@@H]2CCCN2C(=O)[C@H](C)N(C)C(=O)[C@H](Cc2ccccc2)N(C)C(=O)[C@H](Cc2ccccc2)N(C)C(=O)CN(C)C(=O)[C@H]([C@@H](C)O)NC(=O)[C@H](C)N(C)C(=O)C[C@H](C)NC(=O)[C@H](C(C)C)N(C)C1=O [DP-774] (cyclo([Aoc(2)][NMeV][β3hA][NMeA]T[Sar][NMeF][NMeF][NMeA]P[NMeL]))	–	–	26	71	–
CC[C@H](C)[C@@H]1NC(=O)[C@H](C(C)C)NC(=O)[C@H](Cc2ccccc2)N(C)C(=O)[C@H](C(C)C)NC(=O)[C@H](CC(C)C)N(C)C(=O)[C@H](C)NC(=O)C[C@@H](C(=O)N(C)[C@@H](Cc2ccccc2)C(=O)N(C)[C@@H](CC(C)C)C(=O)N[C@H](C(=O)N(C)[C@@H](CC(C)C)C(=O)N[C@H](C(=O)N2CCCCC2)[C@@H](C)CC)[C@@H](C)O)NC1=O [DP-913] (A[NMeL]V[NMeF]VID[NMeF][NMeL]T[NMeL]I-Piperidide; lactam N-7)	–	30	–	–	1.0E−07
CC(C)C[C@@H]1NC(=O)C[C@@H](C(=O)N2CCCCC2)NC(=O)[C@H](CC(C)C)N(C)C(=O)[C@H](CC(C)C)NC(=O)[C@H](CC(C)C)N(C)C(=O)[C@H]([C@@H](C)O)NC(=O)CN(C)C1=O [DP-726] (L[Sar]T[NMeL]L[NMeL]D-Piperidide; lactam N-7)	17	75	–	–	–
CCCCCC[C@@H]1NC(=O)[C@H](Cc2ccccc2)N(C)C(=O)[C@H](C)N(C)C(=O)C[C@H](C)NC(=O)[C@H](C(C)C)N(C)C(=O)[C@H](Cc2ccccc2)N(C)C(=O)[C@H](COC(C)(C)C)NC(=O)[C@H](C)N(C)C(=O)CN(C)C(=O)[C@H]([C@@H](C)O)NC(=O)[C@H](CC(C)C)N(C)C1=O [DP-775] (cyclo([Aoc(2)][NMeL]T[Sar][NMeA]S(tBu)[NMeF][NMeV][β3hA][NMeA][NMeF]))	–	–	37	119	–
CC[C@H](C)[C@H]1C(=O)N[C@H](C(=O)N2CCCCC2)CC(=O)N[C@H](C(C)C)C(=O)N(C)[C@@H](CC(C)C)C(=O)N(C)[C@@H](Cc2ccccc2)C(=O)N(C)[C@@H](C)C(=O)N[C@@H]([C@@H](C)O)C(=O)N(C)CC(=O)N(C)[C@@H](CC(C)C)C(=O)N[C@@H](COC(C)(C)C)C(=O)N1C [DP-257] ([dV][NMeL][NMeF][NMeA]T[Sar][NMeL]S(tBu)[NMeI]D-Piperidide; lactam N-10)	33	46	–	–	–
